Test results published in patent US12702644B2, “Pharmaceutical composition comprising ibuprofen and arginine” (priority 2021, dated 2026).

Key:
[1] = tested on: RAW 264.7 (murine macrophages); test: Superoxide anion generation (DHE fluorescence) in murine macrophages stimulated with LPS; assay type: cell-based; settings: FIG. 3; LPS 25 μM/mL, 60 min; Ibu 10, 50, 100 μM alone; Arg 50 μM alone; PBS
Procedure: The selected method measures the fluorescence of DHE generated from its interaction with superoxide anion (O2^−) to determine the inhibitory effect of the different formulations on the generation of O2^− in murine macrophages that have been stimulated with LPS. This method has been selected because, as Chen et al. [Chen, J., et al. (2013). Analysis of kinetics of dihydroethidium fluorescence with superoxide using xanthine oxidase and hypoxanthine assay. […]
After this incubation, basal fluorescence was measured on a Fluoroskan Ascent plate reader, Labsystems using λex=485 nm and λem=538 nm. […] The fluorescence of the plate was then re-recorded using the same filter as in the basal condition.
For the analysis of the results, the value corresponding to the basal fluorescence for each well was subtracted from each final time value. […]
Murine macrophages were stimulated with LPS (25 μM/mL) and treated with arginine 50 μM alone or with different concentrations of alkaline hypertonic ibuprofen (10, 50, and 100 μM) in PBS saline solution. The cells were loaded with dihydroethidium (DHE) for 30 min at 37° C. and after 60 min of stimulation, normalized fluorescence was determined with the basal reading. […]

[2] = tested on: patients with cystic fibrosis; settings: CF patients, cited from earlier work

Structure (SMILES)	inhibition of LPS-stimulated generation of superoxide anion [1]	FEV1 increase (average) ([2]; inhalation of 5 mL of 100 mg/mL twice daily, −8 ml after saline, difference not statistically significant) [mL]	exhaled NO ([2]; inhalation)
N=C(N)NCCC[C@H](N)C(=O)O [Arginine]	not inhibited		
CC(C)Cc1ccc(C(C)C(=O)O)cc1 (stereo not shown) [Ibuprofen]	not inhibited		
N=C(N)NCCC[C@H](N)C(=O)O [L-arginine]		56	significant increase
